# Laboratory results: patent US12336991B2, “Factor XIIA inhibitors” (UNIVERSITY OF LEEDS, priority 2018, dated 2025)
# pKi: −log10 of the molar value.
# How the values were obtained:
# Assay type in all cases: biochemical
# [1] = target: T1, FXIIa (Homo sapiens, UniProt P00748); experiment: Determination of Factor XIIa inhibition, chromogenic substrate S-2302 assay; conditions: human FXIIa alpha
# T1 sequence (P00748 373-615 limits assumed): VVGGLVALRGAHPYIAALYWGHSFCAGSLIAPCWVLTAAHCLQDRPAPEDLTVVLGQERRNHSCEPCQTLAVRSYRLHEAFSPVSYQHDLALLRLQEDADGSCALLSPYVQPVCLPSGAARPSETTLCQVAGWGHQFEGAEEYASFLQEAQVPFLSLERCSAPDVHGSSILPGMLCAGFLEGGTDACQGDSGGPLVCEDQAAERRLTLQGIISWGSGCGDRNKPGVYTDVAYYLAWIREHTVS
# T1 sequence (P00748 20-372 partner limits assumed): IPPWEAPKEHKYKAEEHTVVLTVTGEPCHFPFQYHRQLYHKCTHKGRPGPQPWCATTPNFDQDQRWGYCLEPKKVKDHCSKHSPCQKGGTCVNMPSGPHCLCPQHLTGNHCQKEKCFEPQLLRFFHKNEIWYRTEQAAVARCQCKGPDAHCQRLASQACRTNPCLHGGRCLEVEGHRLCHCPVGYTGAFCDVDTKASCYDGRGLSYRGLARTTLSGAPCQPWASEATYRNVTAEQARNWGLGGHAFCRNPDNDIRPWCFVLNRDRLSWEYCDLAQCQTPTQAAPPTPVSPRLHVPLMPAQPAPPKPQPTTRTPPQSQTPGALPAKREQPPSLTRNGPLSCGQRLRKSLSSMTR
# Method in brief: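 FXIIa (10 nM) preincubated with compound 10 min at 37° C. in 50 mM Tris, 137 mM NaCl pH 7.4, 5% DMSO, top concentration 500 μM, then S-2302 added ([…]). Absorbance at 405 nm read kinetically for 3 h; IC50 from initial rates, converted to Ki by Cheng-Prusoff.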
# [2] = target: T2, thrombin (Homo sapiens, UniProt P00734); experiment: Determination of selectivity: thrombin inhibition, chromogenic substrate GPR assay; conditions: fold selectivity for FXIIa over thrombin
# T2 construct: FXa (5 nM) and thrombin (5 nM)
# Method in brief: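 Thrombin (5 nM) preincubated with compound 10 min at 37 °C in 50 mM Tris, 137 mM NaCl, pH 7.4, 5% DMSO, then GPR substrate ([…]) added. Absorbance at 405 nm read kinetically for 3 h; IC50 from initial rates, converted to Ki via Ki=IC50/(1+[S]/Km).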
# [3] = target: FXa (Homo sapiens, UniProt P00742); experiment: Determination of selectivity: FXa inhibition, chromogenic substrate S2765 assay; conditions: fold selectivity for FXIIa over FXa
# Method in brief: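 Human FXa (5 nM) preincubated with compound (top 500 μM, 5% DMSO) 10 min at 37 °C in 50 mM Tris, 137 mM NaCl pH 7.4, then S2765 ([…]) added; A405 kinetics over 3 h at 37 °C. IC50 from initial rates, converted to Ki via Cheng-Prusoff.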
# Chain of FXa (P00742 235-488 limits assumed): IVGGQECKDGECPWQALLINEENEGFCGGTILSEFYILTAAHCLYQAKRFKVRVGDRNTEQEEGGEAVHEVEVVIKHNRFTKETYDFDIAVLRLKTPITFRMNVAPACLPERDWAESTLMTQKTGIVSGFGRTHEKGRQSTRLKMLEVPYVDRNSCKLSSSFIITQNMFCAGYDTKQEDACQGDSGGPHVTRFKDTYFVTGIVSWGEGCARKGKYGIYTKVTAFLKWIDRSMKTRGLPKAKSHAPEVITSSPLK
# Chain of FXa (P00742 41-179 partner limits assumed): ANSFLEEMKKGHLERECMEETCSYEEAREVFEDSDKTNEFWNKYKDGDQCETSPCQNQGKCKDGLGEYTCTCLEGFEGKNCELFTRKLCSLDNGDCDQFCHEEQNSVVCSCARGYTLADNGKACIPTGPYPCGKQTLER
Compound,pKi [1],FXa (human)/FXIIa alpha (human) [3],Thrombin (human)/FXIIa alpha (human) [2]
COc1ccc(C[C@@H]2C[C@@H](C(=O)NCc3ccc4c(c3)nnn4C)N(C(=O)[C@H]3CC(c4ccccc4C(F)(F)F)CN3)C2)cc1 (stereo partly drawn) [Example M05397],5.70 to 6.70,∘∘∘,+++ (fold selectivity values greater than 100)
COc1ccc(C[C@@H]2C[C@@H](C(=O)NCc3ccc4c(c3)nnn4C)N(C(=O)[C@H](N)CCC(=O)N3C(C)CCC3C)C2)cc1 (stereo partly drawn) [Example M05399],> 6.70,∘∘∘,+++ (fold selectivity values greater than 100)
COc1ccc(C[C@@H]2C[C@@H](C(=O)NCc3ccc4c(c3)nnn4C)N(C(=O)[C@H](N)CCC(=O)N3CC[C@H](F)C3)C2)cc1 [Example M05400],> 6.70,∘∘∘,+++ (fold selectivity values greater than 100)
COc1ccc(C[C@@H]2C[C@@H](C(=O)NCc3cc4cccnc4[nH]3)N(C(=O)[C@H](N)CCC(=O)N3CCCC3)C2)cc1 [Example M05401],< 5.70,∘∘,++ (fold selectivity value of 10 to 100)
COc1ccc(C[C@@H]2C[C@@H](C(=O)NCc3ccc4c(c3)nnn4C)N(C(=O)[C@H](N)CCC(=O)N3CCC[C@H]3C#N)C2)cc1 [Example M05402],> 6.70,∘∘∘,+++ (fold selectivity values greater than 100)
COc1ccc(C[C@@H]2C[C@@H](C(=O)NCc3cc4cnccc4o3)N(C(=O)[C@H](N)CCC(=O)N3CCCC3)C2)cc1 [Example M05404],> 6.70,∘∘∘,+++ (fold selectivity values greater than 100)
COc1ccc(C[C@@H]2C[C@@H](C(=O)NCc3ccc4c(c3)nnn4C)N(C(=O)[C@H]3CC(c4cccnc4C)CN3)C2)cc1 (stereo partly drawn) [Example M05406],5.70 to 6.70,∘∘∘,+++ (fold selectivity values greater than 100)
COc1ccc(C[C@@H]2C[C@@H](C(=O)NCc3ccc4c(c3)nnn4C)N(C(=O)[C@H](N)CCC(=O)N3CCC[C@H]3C(C)C)C2)cc1 [Example M05407],> 6.70,∘∘∘,+++ (fold selectivity values greater than 100)
COc1ccc(C[C@@H]2C[C@@H](C(=O)NCc3ccc4c(c3)nnn4C)N(C(=O)[C@H]3CC(c4c(C)noc4C)CN3)C2)cc1 (stereo partly drawn) [Example M05409],< 5.70,∘∘,+ (fold selectivity values less than 10)
COc1ccc(C[C@@H]2C[C@@H](C(=O)NCc3ccc4c(c3)nnn4C)N(C(=O)[C@H]3CC(c4cnccc4OC)CN3)C2)cc1 (stereo partly drawn) [Example M05410],< 5.70,∘∘,+ (fold selectivity values less than 10)
COc1ccc(C[C@@H]2C[C@@H](C(=O)NCc3ccc4c(c3)nnn4C)N(C(=O)[C@H](N)CCC(=O)N3C4CCC3COC4)C2)cc1 [Example M05411],5.70 to 6.70,∘∘∘,+++ (fold selectivity values greater than 100)
COc1ccc(C[C@@H]2C[C@@H](C(=O)NCc3ccc4c(c3)nnn4C)N(C(=O)[C@H](N)CCC(=O)N3CCC[C@@H]3C(C)C)C2)cc1 [Example M05412],> 6.70,∘∘∘,+++ (fold selectivity values greater than 100)
COc1ccc(C[C@@H]2C[C@@H](C(=O)NCc3ccc4c(c3)nnn4C)N(C(=O)[C@H](N)CC3CCCc4ccccc43)C2)cc1 (stereo partly drawn) [Example M05413],5.70 to 6.70,∘∘∘,++ (fold selectivity value of 10 to 100)
"COc1ccc(C[C@@H]2C[C@@H](C(=O)NCc3ccc4c(c3)nnn4C)N(C(=O)[C@H](N)CCC(=O)N3CCNC[C@@H]3C)C2)cc1 [Example M05417, (2S,4R)-1-[(R)-2-amino-5-((S)-2-methyl-piperazin-1-yl)-5-oxo-pentanoyl]-4-(4-methoxy-benzyl)-pyrrolidine-2-carboxylic acid (1-methyl-1H-benzotriazol-5-ylmethyl)-amide]",5.70 to 6.70,∘∘∘,+++ (fold selectivity values greater than 100)
COc1ccc(C[C@@H]2C[C@@H](C(=O)NCc3ccc4c(c3)nnn4C)N(C(=O)[C@H](N)CCC(=O)N3C4CCC3CNC4)C2)cc1 [Example M05420],> 6.70,∘∘∘,+++ (fold selectivity values greater than 100)

# More lines, main results first:
pKi [1],FXa (human)/FXIIa alpha (human) [3],Compound,Thrombin (human)/FXIIa alpha (human) [2]
5.70 to 6.70,∘∘∘,COc1ccc(C[C@@H]2C[C@@H](C(=O)NCc3ccc4c(c3)nnn4C)N(C(=O)[C@H]3CC(c4cccnc4F)CN3)C2)cc1 (stereo partly drawn) [Example M05418],+++ (fold selectivity values greater than 100)
> 6.70,∘∘∘,COc1ccc(C[C@@H]2C[C@@H](C(=O)NCc3ccc4c(c3)nnn4C)N(C(=O)[C@H]3CC(c4ccc[nH]c4=O)CN3)C2)cc1 (stereo partly drawn) [Example M05419],+++ (fold selectivity values greater than 100)
5.70 to 6.70,∘∘∘,COc1ccc(C[C@@H]2C[C@@H](C(=O)NCc3ccc4c(c3)nnn4C)N(C(=O)[C@H]3CC(c4cccnc4C(F)(F)F)CN3)C2)cc1 (stereo partly drawn) [Example M05421],+++ (fold selectivity values greater than 100)
< 5.70,∘∘,COc1ccc(C[C@@H]2C[C@@H](C(=O)NCc3ccc4c(c3)nnn4C)N(C(=O)C3NCCc4cc(O)ccc43)C2)cc1 (stereo partly drawn) [Example M05429],++ (fold selectivity value of 10 to 100)
5.70 to 6.70,∘∘∘,COc1ccc(C[C@@H]2C[C@@H](C(=O)NCc3ccc4c(c3)nnn4C)N(C(=O)C3NCCc4cc(Cl)ccc43)C2)cc1 (stereo partly drawn) [Example M05430],+++ (fold selectivity values greater than 100)
< 5.70,∘∘,COc1ccc(C[C@@H]2C[C@@H](C(=O)NCc3ccc4c(c3)nnn4C)N(C(=O)C3NCCc4cc(Cl)ccc43)C2)cc1 (stereo partly drawn) [Example M05431],++ (fold selectivity value of 10 to 100)
> 6.70,∘∘∘,COc1ccc(C[C@@H]2C[C@@H](C(=O)NCc3ccc4c(c3)nnn4C)N(C(=O)C3NCCc4cc(OC)ccc43)C2)cc1 (stereo partly drawn) [Example M05441],+++ (fold selectivity values greater than 100)
5.70 to 6.70,∘∘∘,COc1ccc(C[C@@H]2C[C@@H](C(=O)NCc3ccc4c(c3)nnn4C)N(C(=O)C3NCCc4cc(OC)ccc43)C2)cc1 (stereo partly drawn) [Example M05442],+++ (fold selectivity values greater than 100)
5.70 to 6.70,∘∘∘,COc1ccc(C[C@@H]2C[C@@H](C(=O)NCc3ccc4c(c3)nnn4C)N(C(=O)[C@H](N)CCC(=O)N3CCNC[C@H]3C)C2)cc1 [Example M05443],+++ (fold selectivity values greater than 100)
